Source: paper PMC4865847, “Putative histidine kinase inhibitors with antibacterial effect against multi-drug resistant clinical isolates identified by in vitro and in silico screens” (Scientific Reports, 2016)
In brackets after ≈: the same amount, converted by molar mass. Like-named read-outs stand apart in the source and are kept apart here.

Tests used:
E. coli PhoR (PhoR^E) = molecular target: T1, E. coli PhoR (PhoR^E) (Escherichia coli, UniProt P08400); experiment: In vitro autophosphorylation kinase assay with γ-32P-ATP, PhoR^E; assay type: biochemical; details: for IC50: autophosphorylation, one time point (30 sec), 10% DMSO; for inhibition at 2000 µM: 2 mM, 30 sec, compared to negative control
T1 construct: The catalytic portion (DHp and CA domain) of E. coli PhoR (PhoR^E); made in house; host or cells: E. coli RIL
T1 sequence (P08400 210-425): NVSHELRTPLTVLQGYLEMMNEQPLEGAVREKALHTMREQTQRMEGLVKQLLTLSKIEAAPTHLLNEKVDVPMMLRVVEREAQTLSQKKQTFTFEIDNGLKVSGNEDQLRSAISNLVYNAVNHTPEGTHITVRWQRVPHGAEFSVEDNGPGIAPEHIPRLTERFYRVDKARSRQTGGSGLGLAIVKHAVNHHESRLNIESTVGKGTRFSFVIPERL
Protocol: (§1) To evaluate the inhibitory capacity of selected hits from DSF, SBVS and LBSS in vitro autophosphorylation kinase assays with γ-^32P-ATP were performed as previously described. Ligands were dissolved in 100% DMSO. […] Controls lacking ligands contained an equal concentration of DMSO. Inhibition of autophosphorylation was determined by incubating 0.12 mg/ml (≈4 μM) HK and up to 20 mM fragment in kinase buffer (50 mM Tris HCl, pH 8.5, 50 mM KCl, 5 mM MgCl2, 0.5 mM EDTA and 0.1 mM DTT). Autophosporylation reactions were initiated by addition of 0.1 μCi/μl γ-^32P-ATP containing from 0.03 to 0.06 μM ATP (final concentrations). Autophosphorylation was quenched with 2xSDS-PAGE sample buffer supplemented with 50 mM EDTA. […] After electrophoresis, the bottoms of the gels were removed to lower the background from the unincorporated radiolabeled ATP. Gels were dried without staining on a Bio-Rad Gel Air drying system and the phosphorylated protein was quantified by phosphor-imaging. Prism GraphPad was used for curve fitting and statistical analysis.

S. pneumoniae WalK = molecular target: T2, S. pneumoniae WalK (Streptococcus pneumoniae, UniProt Q8DPL8); experiment: In vitro autophosphorylation kinase assay with γ-32P-ATP, WalK; assay type: biochemical; details: autophosphorylation, one time point (30 sec), 10% DMSO
T2 construct: WalK (amino acids from 208 to 449); N-terminal His6-3C site of vector pOPINF (own knowledge of the vector); made in house; host or cells: E. coli RIL
T2 sequence (Q8DPL8 208-449): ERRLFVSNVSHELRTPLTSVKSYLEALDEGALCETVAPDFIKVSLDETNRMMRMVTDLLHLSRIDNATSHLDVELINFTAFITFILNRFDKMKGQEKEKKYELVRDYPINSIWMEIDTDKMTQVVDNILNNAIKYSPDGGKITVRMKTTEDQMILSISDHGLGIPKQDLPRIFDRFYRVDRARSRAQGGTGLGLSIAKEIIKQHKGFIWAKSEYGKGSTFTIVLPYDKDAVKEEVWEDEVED
Protocol: as §1

Escherichia coli = experiment: Antibacterial susceptibility testing (MIC/MBC), E. coli; assay type: cell-based; details: Escherichia coli
Protocol: (§2) Minimal inhibitory concentrations (MICs) were determined following a standard double-dilution method. […] For S. pneumoniae MICs were determined by adapting the standard double-dilution method to anaerobic conditions and of this microorganism (use of Todd Hewitt Yeast extract with 200 U/mL of catalase and continuous monitoring of growth).

S. aureus PhoR (PhoR^S) = S. aureus PhoR (PhoR^S) (Staphylococcus aureus, UniProt Q2FXN7); experiment: In vitro autophosphorylation kinase assay with γ-32P-ATP, PhoR^S; assay type: biochemical; details: IC50 PhoR^S, autophosphorylation, one time point (30 sec), 10% DMSO
Sequence of S. aureus PhoR (PhoR^S) (Q2FXN7 entry or part of it): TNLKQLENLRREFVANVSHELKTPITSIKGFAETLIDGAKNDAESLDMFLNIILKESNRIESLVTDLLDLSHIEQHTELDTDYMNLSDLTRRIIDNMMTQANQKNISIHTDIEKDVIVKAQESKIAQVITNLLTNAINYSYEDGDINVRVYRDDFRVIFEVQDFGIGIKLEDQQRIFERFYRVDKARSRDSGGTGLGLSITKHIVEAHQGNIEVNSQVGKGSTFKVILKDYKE
Protocol: (§3) To evaluate the inhibitory capacity of selected hits from DSF, SBVS and LBSS in vitro autophosphorylation kinase assays with γ-^32P-ATP were performed as previously described. Ligands were dissolved in 100% DMSO. […] Controls lacking ligands contained an equal concentration of DMSO. Inhibition of autophosphorylation was determined by incubating 0.12 mg/ml (≈4 μM) HK and up to 20 mM fragment in kinase buffer (50 mM Tris HCl, pH 8.5, 50 mM KCl, 5 mM MgCl2, 0.5 mM EDTA and 0.1 mM DTT). Autophosporylation reactions were initiated by addition of 0.1 μCi/μl γ-^32P-ATP containing from 0.03 to 0.06 μM ATP (final concentrations). Autophosphorylation was quenched with 2xSDS-PAGE sample buffer supplemented with 50 mM EDTA. Samples were applied without heating to 15% (w/v) Tris-glycine SDS-polyacrylamide gels. After electrophoresis, the bottoms of the gels were removed to lower the background from the unincorporated radiolabeled ATP. Gels were dried without staining on a Bio-Rad Gel Air drying system and the phosphorylated protein was quantified by phosphor-imaging. Prism GraphPad was used for curve fitting and statistical analysis.

T. maritima HK853 = molecular target: T3, T. maritima HK853 (Thermotoga maritima, UniProt Q9WZV7); experiment: In vitro autophosphorylation kinase assay with γ-32P-ATP, HK853; assay type: biochemical
T3 sequence (Q9WZV7 232-489): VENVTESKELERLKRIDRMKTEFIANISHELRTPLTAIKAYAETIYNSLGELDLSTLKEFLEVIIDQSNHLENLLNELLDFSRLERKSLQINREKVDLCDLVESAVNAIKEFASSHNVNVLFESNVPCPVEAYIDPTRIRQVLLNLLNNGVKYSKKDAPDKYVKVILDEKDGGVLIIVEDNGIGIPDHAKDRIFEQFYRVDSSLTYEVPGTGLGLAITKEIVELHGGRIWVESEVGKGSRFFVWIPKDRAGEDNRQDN
Protocol: as §3

Staphylococcus aureus = experiment: Antibacterial susceptibility testing (MIC/MBC), S. aureus; assay type: cell-based; details: for MIC / MBC: Staphylococcus aureus
Protocol: as §2

[1] = tested on: Staphylococcus epidermidis; experiment: Antibacterial susceptibility testing (MIC/MBC), S. epidermidis; assay type: cell-based
Protocol: as §2

Streptococcus suis = experiment: Antibacterial susceptibility testing (MIC), S. suis; assay type: cell-based
Protocol: (§4) Bacterial strains used in this study for antibacterial susceptibility testing (Table S5) were propagated using standard microbiological procedures. Minimal inhibitory concentrations (MICs) were determined following a standard double-dilution method. MICs were recorded as the lowest concentration of the compound where no visible growth was observed. After plating the dilutions around the MIC or growing them in fresh MH media, minimal bactericidal concentration (MBC) was recorded as the lowest concentration of the compound at which no colonies were formed or no growth was observed, respectively. For S. pneumoniae MICs were determined by adapting the standard double-dilution method to anaerobic conditions and of this microorganism (use of Todd Hewitt Yeast extract with 200 U/mL of catalase and continuous monitoring of growth).

Pseudomonas aeruginosa = experiment: Antibacterial susceptibility testing (MIC), P. aeruginosa; assay type: cell-based; details: Pseudomonas aeruginosa, ATCC27853; strain ATCC 27853
Protocol: as §4

Hemolysis assay = assay type: cell-based; details: human
Protocol: Hemolytic activity against human erythrocytes taken from a healthy donor was measured as previously described. The hemolysis experiments were carried out in accordance with the guidelines of the United Arab Emirates University (UAEU) Research Ethics Review Board. All experimental protocols were approved by the Research Ethics Review Board of UAEU and informed consent was obtained from all donors.

Klebsiella pneumoniae = experiment: Antibacterial susceptibility testing (MIC), K. pneumoniae; assay type: cell-based; details: Klebsiella pneumoniae, ATCC700603, strain ATCC 700603
Protocol: as §4

[2] = tested on: Stenotrophomonas maltophilia; experiment: Antibacterial susceptibility testing (MIC), S. maltophilia; assay type: cell-based; details: clinical isolate B32/1, read-out: MIC S. maltophilia B32/1
Protocol: as §4

[3] = Solubility in kinase buffer; assay type: physicochemical; details: kinase buffer in the presence of 10% DMSO
Acinetobacter baumannii = experiment: Antibacterial susceptibility testing (MIC), A. baumannii; assay type: cell-based; details: MDR clinical isolate NM8, read-out: MIC A. baumannii NM8
Protocol: as §4

[4] = strain CFT 073, read-out: MIC E. coli CFT 073
[5] = DSM20231, strain DSM 20231, read-out: MIC S. aureus DSM 20231
[6] = Staphylococcus epidermidis, DSM20044, strain DSM 20044, read-out: MIC S. epidermidis DSM 20044

SMILES: CC(NCc1cccc(F)c1)c1ccc2ccccc2c1 (centres unmarked) [S10]
- IC50 (E. coli PhoR (PhoR^E); IC50 PhoR^E): > 5 mM
- IC50 (S. pneumoniae WalK; IC50 WalK): > 5 mM
- MIC (Escherichia coli; [4]): > 500 µg/mL
- IC50 (S. aureus PhoR (PhoR^S)): > 5 mM
- IC50 (T. maritima HK853): > 5 mM
- MIC (Staphylococcus aureus; [5]): > 500 µg/mL
- MIC [1, 6]: > 500 µg/mL

SMILES: Oc1cccc2[nH]c3ccccc3c12 [F2.8]
- MIC (Streptococcus suis; Streptococcus suis, read-out: MIC Streptococcus suis 3881/S10, strain 3881/S10): 250 µg/mL (≈ 1360 µM)
- MIC Streptococcus suis 3881/S10 (Streptococcus suis; strain 3881/S10): 125 µg/mL (≈ 682 µM)
- MIC (Pseudomonas aeruginosa): > 500 µg/mL
- HC50 (Hemolysis assay): > 500 µg/mL
- inhibition at 2000 µM (E. coli PhoR (PhoR^E)): > 50%
- IC50 (E. coli PhoR (PhoR^E); read-out: IC50 PhoR^E): 0.72 mM
- IC50 (S. pneumoniae WalK; read-out: IC50 WalK): > 2 mM
- MIC (Escherichia coli; ATCC25276, strain ATCC 25276, read-out: MIC E. coli ATCC 25276): 500 µg/mL (≈ 2730 µM)
- MBC (Escherichia coli; strain CFT 073, read-out: MBC E. coli CFT 073): 500 µg/mL (≈ 2730 µM)
- MIC (Escherichia coli; summary over E. coli strains, read-out: antibacterial effects (MIC) against E. coli): ≥ 63 µg/mL
- MIC (Klebsiella pneumoniae): 250 µg/mL (≈ 1360 µM)
- MIC (Staphylococcus aureus; ATCC reference strain 25293, read-out: MIC S. aureus 25293): 250 µg/mL (≈ 1360 µM)
- MBC (Staphylococcus aureus; DSM20231, strain DSM 20231, read-out: MBC S. aureus DSM 20231): 63 µg/mL (≈ 344 µM)
- MIC (Staphylococcus aureus; [5]): 31 to 250 µg/mL (≈ 169 to 1360 µM)
- MIC (Staphylococcus aureus; MRSA clinical isolate 127/08, read-out: MIC S. aureus 127/08): 250 µg/mL (≈ 1360 µM)
- MIC (Staphylococcus aureus; MRSA clinical isolate 145/08, read-out: MIC S. aureus 145/08): 250 µg/mL (≈ 1360 µM)
- MIC (Staphylococcus aureus; MRSA clinical isolate 274/08, read-out: MIC S. aureus 274/08): 250 µg/mL (≈ 1360 µM)
- MIC (Staphylococcus aureus; MRSA, MRSA clinical isolate T4/6, read-out: MIC S. aureus T4/6): 250 µg/mL (≈ 1360 µM)
- MIC (Staphylococcus aureus; MRSA, MRSA clinical isolate V4180, read-out: MIC S. aureus V4180): 250 µg/mL (≈ 1360 µM)
- MIC (Staphylococcus aureus; MRSA, summary over strains, read-out: MICs for the MRSA strains and S. aureus 25293): 125 to 500 µg/mL (≈ 682 to 2730 µM)
- MIC S. aureus DSM 20231 (Staphylococcus aureus; strain DSM 20231): 31 µg/mL (≈ 169 µM)
- MBC ([1]; Staphylococcus epidermidis, DSM20044, strain DSM 20044): 250 µg/mL (≈ 1360 µM)
- MIC [1, 6]: 31 to 500 µg/mL (≈ 169 to 2730 µM)
- MIC ([1]; Staphylococcus epidermidis, clinical isolate T7/3, read-out: MIC S. epidermidis T7/3): 63 µg/mL (≈ 344 µM)
- MIC ([1]; Staphylococcus epidermidis, clinical isolate T37/8, read-out: MIC S. epidermidis T37/8): 250 µg/mL (≈ 1360 µM)
- MIC ([1]; Staphylococcus epidermidis, clinical isolate T6119, read-out: MIC S. epidermidis T6119): 250 µg/mL (≈ 1360 µM)
- MIC ([1]; Staphylococcus epidermidis, strain RP62A (biofilm producer), read-out: MIC S. epidermidis RP62A): 250 µg/mL (≈ 1360 µM)
- MIC ([1]; Staphylococcus epidermidis, strain RP62A/1 (non-biofilm producer), read-out: MIC S. epidermidis RP62A/1): 250 µg/mL (≈ 1360 µM)
- MIC ([1]; Staphylococcus epidermidis, summary over strains, read-out: MICs for the S. epidermidis strains): 31 to 250 µg/mL (≈ 169 to 1360 µM)
- MIC S. epidermidis DSM 20044 ([1]; strain DSM 20044): 31 µg/mL (≈ 169 µM)
- MIC [2]: > 500 µg/mL
- solubility in kinase buffer [3]: good solubility
- MIC (Acinetobacter baumannii): > 500 µg/mL

SMILES: Nc1ccc2c(c1)[nH]c1ccccc12 [F2.1]
- inhibition at 2000 µM (E. coli PhoR (PhoR^E)): > 50%
- IC50 (E. coli PhoR (PhoR^E); read-out: IC50 PhoR^E): 0.24 mM
- IC50 (S. pneumoniae WalK; read-out: IC50 WalK): > 2 mM
- MIC (Escherichia coli; read-out: MIC E. coli CFT 073): > 500 µg/mL
- MBC (Staphylococcus aureus; DSM20231, read-out: MBC S. aureus DSM 20231): > 500 µg/mL
- MIC (Staphylococcus aureus; DSM20231, read-out: MIC S. aureus DSM 20231): 8 µg/mL (≈ 43.9 µM)
- MIC ([1]; Staphylococcus epidermidis, DSM20044, read-out: MIC S. epidermidis DSM 20044): > 500 µg/mL
- solubility in kinase buffer [3]: good solubility

SMILES: O=C(CCN1c2ccccc2Sc2ccccc21)OCc1cc(=O)n2ccsc2n1 [S1]
- IC50 (E. coli PhoR (PhoR^E); IC50 PhoR^E): > 5 mM
- IC50 (S. pneumoniae WalK; IC50 WalK): > 5 mM
- MIC (Escherichia coli; [4]): > 500 µg/mL
- IC50 (S. aureus PhoR (PhoR^S)): > 5 mM
- IC50 (T. maritima HK853): > 5 mM
- MIC (Staphylococcus aureus; [5]): > 500 µg/mL
- MIC [1, 6]: > 500 µg/mL

SMILES: CNC(=O)NC(=O)CSc1nc2sc3c(c2c(=O)n1-c1ccccc1F)CCCC3 [S4]
- IC50 (E. coli PhoR (PhoR^E); IC50 PhoR^E): > 5 mM
- IC50 (S. pneumoniae WalK; IC50 WalK): > 5 mM
- MIC (Escherichia coli; [4]): > 500 µg/mL
- IC50 (S. aureus PhoR (PhoR^S)): > 5 mM
- IC50 (T. maritima HK853): > 5 mM
- MIC (Staphylococcus aureus; [5]): > 500 µg/mL
- MIC [1, 6]: > 500 µg/mL
